We go through three molecules from patent publication US9637479B2, “Tartrate salt of 5-chloro-thiophene-2-carboxylic acid [(S)-2-[2-methyl-3-(2-oxo-pyrrolidin-1-yl)-benzenesulfonylamino]-3-(4-methyl-piperazin-1-yl)-3-oxo-propyl]amide” (SANOFI, priority 2013, dated 2017).

Holding throughout (type): physicochemical
The nature of data set [1]: Test of solubility in different buffers. On the procedure:
The solubility of sodium, L-lactate and L-tartrate salts of the compound of formula (I) was analyzed in different buffers. The results are described in table below (solubility of the tested compound is expressed in mg/ml).

Data set [2] in a line: Test of stability in the solid state (stress degradation, one week of storage). The settings on record: for Stress degradation conditions 80°/saturated humidity: one week of storage at 80° C. under saturated humidity; for Stress degradation conditions 80° C./dry: one week of storage at 80° C., stable = optically, chemically and physically. On the procedure: The sodium, L-lactate and L-tartrate salts of the compound of formula (I) were analyzed after one week of storage, at: • 80° C. • 80° C. and under saturated humidity, […]

The nature of data set [3]: Test of stability in solution (strong oxidizing solution, H2O2 at 0.3%); proportion of main N-oxide impurity. To be noted: room temperature. On the procedure: The sodium, L-lactate and L-tartrate salts of the compound of formula (I) were analyzed after one week of storage in a strong oxidizing solution: the three compounds were maintained in a solution of H2O2 at 0.3%, at room temperature. After either 6 hours or one week, the proportion of the main N-oxide impurity of the compound of formula (I) [drawing 4] was measured.

Data set [4] in a line: Physical properties: hygroscopicity, water uptake, behavior under saturated humidity. To be noted: for Behavior under saturated humidity 80° C.: sodium and L-lactate: after 24 hours.
Setting [5] is: 0.2M pH = 9 hydregenocarbonate buffer.

Where a name gives a salt, the structure may show the parent alone. Read-outs that look alike come from different tables or passages of the source.

For `Cc1c(N2CCCC2=O)cccc1S(=O)(=O)N[C@@H](CNC(=O)c1ccc(Cl)s1)C(=O)N1CCN(C)CC1` [L-lactate salt, 5-chloro-thiophene-2-carboxylic acid [(S)-2-[2-methyl-3-(2-oxo-pyrrolidin-1-yl)-benzenesulfonylamino]-3-(4-methyl-piperazin-1-yl)-3-oxo-propyl]amide], the Solubility in data set [1] (0.1M pH = 4 phosphate buffer) is above 10000 µg/mL; in data set [1] (0.1M pH = 6.5 phosphate buffer), above 10000 µg/mL; in data set [1] (0.1M pH = 7.4 phosphate buffer) it was 9800 µg/mL; in data set [1] (0.1N HCl), above 10000 µg/mL; in data set [1] (setting [5]) it was 8500 µg/mL; in data set [1] (Purified water), above 10000 µg/mL. For the same molecule, the “Stress degradation conditions 80°/saturated humidity” value in data set [2] is reported as “slight degradation”. For the same molecule, the “Stress degradation conditions 80° C./dry” value in data set [2] is “stable*”. Also, the “% of impurity (main N-oxide impurity)” value in data set [3] (after 1 week) is 6.9% after 1 week. Moreover, the Hygroscopicity result in data set [4] was “Hygroscopic”. Besides, the “Water uptake 80% RH 25° C.” value in data set [4] turned out to be 2.5%. Besides, in data set [4], the “Behavior under saturated humidity 80° C.” value was “Gel formation-amorphous”.

As for `Cc1c(N2CCCC2=O)cccc1S(=O)(=O)N[C@@H](CNC(=O)c1ccc(Cl)s1)C(=O)N1CCN(C)CC1` [L-tartrate salt, 5-chloro-thiophene-2-carboxylic acid [(S)-2-[2-methyl-3-(2-oxo-pyrrolidin-1-yl)-benzenesulfonylamino]-3-(4-methyl-piperazin-1-yl)-3-oxo-propyl]amide], the Solubility in data set [1] (0.1M pH = 4 phosphate buffer) was above 10000 µg/mL; in data set [1] (0.1M pH = 6.5 phosphate buffer) it was above 10000 µg/mL; in data set [1] (0.1M pH = 7.4 phosphate buffer), above 10000 µg/mL; in data set [1] (0.1N HCl), above 10000 µg/mL; in data set [1] (setting [5]), 8300 µg/mL; in data set [1] (Purified water), above 10000 µg/mL. Also, the “Stress degradation conditions 80°/saturated humidity” value in data set [2] was “stable”. Moreover, in data set [2], the “Stress degradation conditions 80° C./dry” value was “stable*”. The “% of impurity (main N-oxide impurity)” value in data set [3] (after 1 week) stood at 0.77% after 1 week. Moreover, in data set [4], the Hygroscopicity result is “Slightly”. Moreover, in data set [4], the “Water uptake 80% RH 25° C.” value is recorded as 0.9%. In addition, in data set [4], the “Behavior under saturated humidity 80° C.” value was “Stable 7 days”.

As to `Cc1c(N2CCCC2=O)cccc1S(=O)(=O)N[C@@H](CNC(=O)c1ccc(Cl)s1)C(=O)N1CCN(C)CC1` [Sodium salt, 5-chloro-thiophene-2-carboxylic acid [(S)-2-[2-methyl-3-(2-oxo-pyrrolidin-1-yl)-benzenesulfonylamino]-3-(4-methyl-piperazin-1-yl)-3-oxo-propyl]amide], the Solubility was above 10000 µg/mL in data set [1] (0.1N HCl, simulated gastric fluid, 0.1N HCl, read-out: Solubility); above 10000 µg/mL in data set [1] (hydrogenocarbonate buffer, pH 9, aqueous buffer, 0.2M pH = 9 hydregenocarbonate buffer, read-out: Solubility); 8900 µg/mL in data set [1] (phosphate buffer, pH 4, aqueous buffer, 0.1M pH = 4 phosphate buffer, read-out: Solubility); 6500 µg/mL in data set [1] (phosphate buffer, pH 6.5, aqueous buffer, 0.1M pH = 6.5 phosphate buffer, read-out: Solubility); 6900 µg/mL in data set [1] (phosphate buffer, pH 7.4, aqueous buffer, 0.1M pH = 7.4 phosphate buffer, read-out: Solubility); above 10000 µg/mL in data set [1] (purified water, water, Purified water, read-out: Solubility). Also, in data set [2], the “Stress degradation conditions 80°/saturated humidity” value is listed as “huge degradation”. The “Stress degradation conditions 80° C./dry” value in data set [2] was “stable*”. Moreover, in data set [3] (after 6 hours), the “% of impurity (main N-oxide impurity)” value stood at 25.4% after 6 hours. In data set [4], the Hygroscopicity entry was “Highly”. The “Water uptake 80% RH 25° C.” value in data set [4] came to 31.5%. Moreover, the “Behavior under saturated humidity 80° C.” value in data set [4] is reported as “Deliquescence”.

The term Solubility denotes how much of the substance goes into solution per volume.
